The source of these data is patent US20040013733A1, “Preparation of a biodegradable thermal-sensitive gel system” (Industrial Technology Research Institute, priority 2001, published 2004).

For the test, the system named is blood vessel growth (angiogenesis). Kind of test: The angiogenesis animal model: gel of Example 4 mixed with drug injected to mice, blood vessel growth observed. The class given is in vivo. The note with it: drug in gel of Example 4, 0.5 mL gel injected, two months old mice, N=2, after 15 days, gel and adjacent tissue. On the procedure:
The gel solution prepared according the process of Example 4 was mixed with various drugs listed in tablet at room temperature and is injected (0.5 mL gel each) to two months old mice, N=2. Sacrifice the mice after 15 days and take out the gel and its adjacent tissue to observe the blood vessel growth. The results are listed in table 1 and shown in the color pictures supplemented (please refer to attachments).
The tissue taken out was observed by electron microscope and the results were shown as FIG. 2.
In other words, the endothecium cell and blood vessels of the host can develop in the beehive structure of the gel. The results tell us that co-administrate the gel of the present invention and angiogenesis drug did benefit angiogenesis.

“bFGF: angiogenesis-inducing growth factor, 250 ng/ml, mixed with gel of Example 4”: the “Blood vessel growth state” value is “Angiogenesis is present”.
